According to patent US6087391A, “Method of rendering organic compounds soluble in fatty systems, novel chemical complexes of such compounds and various applications of the complexes” (priority 1994, dated 2000):

Experiment: Simulation of bioavailability: availability of test compound in standardised enteric juice
Details: enteric juice pH 8.3, 37 degrees Celsius; mean over the entire experiment (60-240 minutes); mean of two experiments
Procedure: 5 g of test compound either pure or in ethanolic solution was mixed with 5-20 g of the below mentioned carrier. After vigorously mixing ethanol was removed by evaporation.
The following carrier was used: diacetylated monoglyceride with the following fatty acid composition based on the monoglyceride: about 50% lauric acid (12:0), 20% myristic acid (14:0), 15% caprylic/capric acid (8:0 and 10:0) and 10% palmitic acid (16:0).
The pH was adjusted to 8.3.
0.500 g complex and 50 ml of standardised enteric juice was mixed in a 100 ml vessel and placed on a shaking water bath at 37 degrees Celsius under moderate agitation. As controls pure test compound corresponding to 0.500 g complex was used instead of 0.500 g complex.
Samples of 1.000 ml were collected after 60, 120, 180 and 240 minutes. The samples were extracted with 1.5 ml of 1-butanol. The concentration of test compound in the enteric juice was determined by an appropriate method (spectrophotometrically or by HPLC).

In the case of `COC1=C(OC)C(=O)C(C/C=C(\C)CC/C=C(\C)CC/C=C(\C)CC/C=C(\C)CC/C=C(\C)CC/C=C(\C)CC/C=C(\C)CC/C=C(\C)CC/C=C(\C)CCC=C(C)C)=C(C)C1=O` [Q10, coenzyme Q10], the “availability in the complex form compared to pure test compound” value is reported as 2,2 times.
